The results in this text go back to patent publication US12655125B2 (SIRONAX LTD., priority 2020, dated 2026).

As usually defined, the EC50 is the concentration that produces a half-maximal response.

The test system of this test is HT-29 cells. Nature of the test: HT29 Cells 0FBS Assay In Vitro (TNF-α/SMAC mimetic/zVAD-FMK induced necroptosis, CellTiter-Glo cell viability). Format: cell-based. The settings on record: Homo sapiens; HT-29 cells, FBS free medium, TNF-α (10 ng/ml), SMAC mimetic (6 uM), zVAD-FMK (10 μM), 20 hours; geometric mean EC50; read-out: Cell activity (EC50) of Compounds 117-281. A digest of the protocol: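 HT-29 cells (5,000/well, seeded overnight) in serum-free McCoy's 5A were stimulated with TNF-α 10 ng/ml, SMAC mimetic 6 μM and zVAD-FMK 10 μM to induce necroptosis. Compound added as 10-point 3-fold series for 20 h at 37° C. CellTiter-Glo luminescence gives viability; EC50 is geometric mean of duplicate dose-responses.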
Consider `Cc1nn(-c2cc(OC3CN(C(=O)N4N=CC[C@H]4c4cc(F)cc(F)c4)C3)c(F)cn2)c(C)c1S(N)(=O)=O` [compound 220, (S)-1-(4-((1-(5-(3,5-difluorophenyl)-4,5-dihydro-1H-pyrazole-1-carbonyl)azetidin-3-yl)oxy)-5-fluoropyridin-2-yl)-3,5-dimethyl-1H-pyrazole-4-sulfonamide], for which the EC50 lay in the range of 0.1 to 100 nM.

Turning to `Cc1cc(C)n(-c2cc(OC3CN(C(=O)N4N=CC[C@H]4c4cc(F)cc(F)c4)C3)c(F)cn2)n1` [compound 221, (S)-(5-(3,5-difluorophenyl)-4,5-dihydro-1H-pyrazol-1-yl)(3-((2-(3,5-dimethyl-1H-pyrazol-1-yl)-5-fluoropyridin-4-yl)oxy)azetidin-1-yl)methanone], the EC50 is 0.1 to 100 nM.

In the case of `Cc1nn(-c2cc(OC3CN(C(=O)N4N=CC[C@H]4c4cc(F)cc(F)c4)C3)c(F)cn2)c(C)c1CC(=O)N1CCC1` [compound 222, (S)-1-(azetidin-1-yl)-2-(1-(4-((1-(5-(3,5-difluorophenyl)-4,5-dihydro-1H-pyrazole-1-carbonyl)azetidin-3-yl)oxy)-5-fluoropyridin-2-yl)-3,5-dimethyl-1H-pyrazol-4-yl)ethan-1-one], the EC50 lay in the range of 0.1 to 100 nM.

Turning to `Cc1nn(-c2cc(OC3CN(C(=O)N4N=CC[C@H]4c4cc(F)cc(F)c4)C3)c(F)cn2)c(C)c1CC(=O)NCCO` [compound 223, (S)-2-(1-(4-((1-(5-(3,5-difluorophenyl)-4,5-dihydro-1H-pyrazole-1-carbonyl)azetidin-3-yl)oxy)-5-fluoropyridin-2-yl)-3,5-dimethyl-1H-pyrazol-4-yl)-N-(2-hydroxyethyl)acetamide], the EC50 lay in the range of 0.1 to 100 nM.

Consider `Cc1nn(-c2cc(OC3CN(C(=O)N4N=CC[C@H]4c4cc(F)cc(F)c4)C3)c(F)cn2)c(C)c1CC(=O)N1CCOCC1` [compound 224, (S)-2-(1-(4-((1-(5-(3,5-difluorophenyl)-4,5-dihydro-1H-pyrazole-1-carbonyl)azetidin-3-yl)oxy)-5-fluoropyridin-2-yl)-3,5-dimethyl-1H-pyrazol-4-yl)-1-morpholinoethan-1-one], for which the concentration giving a half-maximal response (EC50) lay in the range of 0.1 to 100 nM.

For the molecule `Cc1nn(-c2cc(OC3CN(C(=O)N4N=CC[C@H]4c4cc(F)cc(F)c4)C3)c(F)cn2)c(C)c1CC(N)=O` [compound 225, (S)-2-(1-(4-((1-(5-(3,5-difluorophenyl)-4,5-dihydro-1H-pyrazole-1-carbonyl)azetidin-3-yl)oxy)-5-fluoropyridin-2-yl)-3,5-dimethyl-1H-pyrazol-4-yl)acetamide], the EC50 was 0.1 to 100 nM.

As to `CNC(=O)Cc1c(C)nn(-c2cc(OC3CN(C(=O)N4N=CC[C@H]4c4cc(F)cc(F)c4)C3)c(F)cn2)c1C` [compound 226, (S)-2-(1-(4-((1-(5-(3,5-difluorophenyl)-4,5-dihydro-1H-pyrazole-1-carbonyl)azetidin-3-yl)oxy)-5-fluoropyridin-2-yl)-3,5-dimethyl-1H-pyrazol-4-yl)-N-methylacetamide], the EC50 lay in the range of 0.1 to 100 nM.

For `Cc1nn(-c2cc(OC3CN(C(=O)N4N=CC[C@H]4c4cc(F)cc(F)c4)C3)c(F)cn2)c(C)c1SCc1ccccc1` [compound 227, (S)-(3-((2-(4-(benzylthio)-3,5-dimethyl-1H-pyrazol-1-yl)-5-fluoropyridin-4-yl)oxy)azetidin-1-yl)(5-(3,5-difluorophenyl)-4,5-dihydro-1H-pyrazol-1-yl)methanone], the EC50 was in the range of 0.1 to 100 nM.

Take `Cc1onc(N)c1-c1cc(OC2CN(C(=O)N3N=CC[C@H]3c3cc(F)cc(F)c3)C2)c(F)cn1` [compound 228, (S)-(3-((2-(3-amino-5-methylisoxazol-4-yl)-5-fluoropyridin-4-yl)oxy)azetidin-1-yl)(5-(3,5-difluorophenyl)-4,5-dihydro-1H-pyrazol-1-yl)methanone]: the EC50 lay within 0.1 to 100 nM.

`Cc1c(-c2cc(OC3CN(C(=O)N4N=CC[C@H]4c4cc(F)cc(F)c4)C3)c(F)cn2)nn(C)c1C(N)=O` [compound 229, (S)-3-(4-((1-(5-(3,5-difluorophenyl)-4,5-dihydro-1H-pyrazole-1-carbonyl)azetidin-3-yl)oxy)-5-fluoropyridin-2-yl)-1,4-dimethyl-1H-pyrazole-5-carboxamide]: the EC50 lay within 0.1 to 100 nM.

For the molecule `CNS(=O)(=O)c1c(C)nn(-c2cc(OC3CN(C(=O)N4N=CC[C@H]4c4cc(F)cc(F)c4)C3)c(F)cn2)c1C` [compound 230, (S)-1-(4-((1-(5-(3,5-difluorophenyl)-4,5-dihydro-1H-pyrazole-1-carbonyl)azetidin-3-yl)oxy)-5-fluoropyridin-2-yl)-N,3,5-trimethyl-1H-pyrazole-4-sulfonamide], the half-maximal effective concentration (EC50) is 0.1 to 100 nM.

In the case of `CCNC(=O)c1c(C)nn(-c2cc(OC3CN(C(=O)N4N=CC[C@H]4c4cc(F)cc(F)c4)C3)c(F)cn2)c1C` [compound 231, (S)-1-(4-((1-(5-(3,5-difluorophenyl)-4,5-dihydro-1H-pyrazole-1-carbonyl)azetidin-3-yl)oxy)-5-fluoropyridin-2-yl)-N-ethyl-3,5-dimethyl-1H-pyrazole-4-carboxamide], the EC50 fell in the range of 0.1 to 100 nM.

Consider `Cc1nn(-c2cc(OC3CN(C(=O)N4N=CC[C@H]4c4cc(F)cc(F)c4)C3)c(F)cn2)c(C)c1C(=O)NC1CC1` [compound 232, (S)—N-cyclopropyl-1-(4-((1-(5-(3,5-difluorophenyl)-4,5-dihydro-1H-pyrazole-1-carbonyl)azetidin-3-yl)oxy)-5-fluoropyridin-2-yl)-3,5-dimethyl-1H-pyrazole-4-carboxamide], for which the EC50 lay within 0.1 to 100 nM.

Take `Cc1nn(-c2cc(OC3CN(C(=O)N4N=CC[C@H]4c4cc(F)cc(F)c4)C3)c(F)cn2)c(C)c1C(=O)O` [compound 233, (S)-1-(4-((1-(5-(3,5-difluorophenyl)-4,5-dihydro-1H-pyrazole-1-carbonyl)azetidin-3-yl)oxy)-5-fluoropyridin-2-yl)-3,5-dimethyl-1H-pyrazole-4-carboxylic acid]: the EC50 was in the range of 0.1 to 100 nM.

On to `Cc1nn(-c2cc(OC3CN(C(=O)N4N=CCC4c4cc(F)cc(F)c4)C3)c(F)cn2)c(C)c1C(N)=O` (stereo not drawn) [compound 234, 1-(4-((1-(5-(3,5-difluorophenyl)-4,5-dihydro-1H-pyrazole-1-carbonyl)azetidin-3-yl)oxy)-5-fluoropyridin-2-yl)-3,5-dimethyl-1H-pyrazole-4-carboxamide], for which the EC50 was 0.1 to 100 nM.

Take `Cc1nn(-c2cc(OC3CN(C(=O)N4N=CC[C@H]4c4cc(F)cc(F)c4)C3)c(F)cn2)c(C)c1S(=O)(=O)NC1CCC1` [compound 235, (S)—N-cyclobutyl-1-(4-((1-(5-(3,5-difluorophenyl)-4,5-dihydro-1H-pyrazole-1-carbonyl)azetidin-3-yl)oxy)-5-fluoropyridin-2-yl)-3,5-dimethyl-1H-pyrazole-4-sulfonamide]: the EC50 is 0.1 to 100 nM.

In the case of `Cc1nn(-c2cc(OC3CN(C(=O)N4N=CC[C@H]4c4cc(F)cc(F)c4)C3)c(F)cn2)c(C)c1S(=O)(=O)Cc1ccccc1` [compound 236, (S)-(3-((2-(4-(benzylsulfonyl)-3,5-dimethyl-1H-pyrazol-1-yl)-5-fluoropyridin-4-yl)oxy)azetidin-1-yl)(5-(3,5-difluorophenyl)-4,5-dihydro-1H-pyrazol-1-yl)methanone], the EC50 was in the range of 0.1 to 100 nM.

On to `Cc1c(-c2cc(OC3CN(C(=O)N4N=CC[C@H]4c4cc(F)cc(F)c4)C3)c(F)cn2)nn(C)c1C#N` [compound 237, (S)-3-(4-((1-(5-(3,5-difluorophenyl)-4,5-dihydro-1H-pyrazole-1-carbonyl)azetidin-3-yl)oxy)-5-fluoropyridin-2-yl)-1,4-dimethyl-1H-pyrazole-5-carbonitrile], for which the EC50 lay within 0.1 to 100 nM.

For the molecule `Cc1cn(C)c(=O)n1-c1cc(OC2CN(C(=O)N3N=CC[C@H]3c3cc(F)cc(F)c3)C2)c(F)cn1` [compound 238, (S)-3-(4-((1-(5-(3,5-difluorophenyl)-4,5-dihydro-1H-pyrazole-1-carbonyl)azetidin-3-yl)oxy)-5-fluoropyridin-2-yl)-1,4-dimethyl-1,3-dihydro-2H-imidazol-2-one], the EC50 lay in the range of 100 to 1000 nM.

As to `Cc1nn(-c2cc(OC3CN(C(=O)N4N=CC[C@H]4c4cc(F)cc(F)c4)C3)c(F)cn2)c(C)c1CC(=O)N(C)C` [compound 239, (S)-2-(1-(4-((1-(5-(3,5-difluorophenyl)-4,5-dihydro-1H-pyrazole-1-carbonyl)azetidin-3-yl)oxy)-5-fluoropyridin-2-yl)-3,5-dimethyl-1H-pyrazol-4-yl)-N,N-dimethylacetamide], the EC50 is 0.1 to 100 nM.

As for `Cc1nn(-c2cc(OC3CN(C(=O)N4N=CC[C@H]4c4cc(F)cc(F)c4)C3)c(F)cn2)c(C)c1S(=O)(=O)NC1COC1` [compound 240], the EC50 lay within 0.1 to 100 nM.

As to `Cc1nn(-c2cc(OC3CN(C(=O)N4N=CC[C@H]4c4cc(F)cc(F)c4)C3)c(F)cn2)c(C)c1S(=O)(=O)NC1CCOCC1` [compound 241, (S)-1-(4-((1-(5-(3,5-difluorophenyl)-4,5-dihydro-1H-pyrazole-1-carbonyl)azetidin-3-yl)oxy)-5-fluoropyridin-2-yl)-3,5-dimethyl-N-(tetrahydro-2H-pyran-4-yl)-1H-pyrazole-4-sulfonamide], the EC50 was in the range of 0.1 to 100 nM.

For `Cc1nn(-c2cc(OC3CN(C(=O)N4N=CC[C@H]4c4cc(F)cc(F)c4)C3)c(F)cn2)c(C)c1S(=O)(=O)NC1CCCCC1` [compound 242, (S)—N-cyclohexyl-1-(4-((1-(5-(3,5-difluorophenyl)-4,5-dihydro-1H-pyrazole-1-carbonyl)azetidin-3-yl)oxy)-5-fluoropyridin-2-yl)-3,5-dimethyl-1H-pyrazole-4-sulfonamide], the EC50 was in the range of 0.1 to 100 nM.

In the case of `Cc1nn(-c2cc(OC3CN(C(=O)N4N=CC[C@H]4c4cc(F)cc(F)c4)C3)c(F)cn2)c(C)c1S(=O)(=O)Nc1ccccc1` [compound 243, (S)-1-(4-((1-(5-(3,5-difluorophenyl)-4,5-dihydro-1H-pyrazole-1-carbonyl)azetidin-3-yl)oxy)-5-fluoropyridin-2-yl)-3,5-dimethyl-N-phenyl-1H-pyrazole-4-sulfonamide], the EC50 was 0.1 to 100 nM.
